Experimental data as given in patent US20120134933A1, “USE OF HIGH-DOSES OF MONOMERIC CONTRAST MEDIUM CONTAINING IODINE IN X-RAY DIAGNOSTICS, IN PARTICULAR IN INTERVENTIONAL X-RAY DIAGNOSTICS AND IN RADIATION THERAPY ASSISTED BY CONTRAST MEDIA CONTAINING IODINE” (BAYER PHARMA AKTIENGESELLSCHAFT, priority 2009, published 2012).

Assays:
Format in all cases: in vivo, Wistar Han rats
tubular cells = test: Vacuolization in the kidney 24 hours after injection of XCM (histology of paraffin sections); conditions: rat, 4 g of iodine per kg of BW i.v.; for degree of vacuolization in the kidney (in words): compared among monomeric XCMs
Protocol: (§1) For the study, use was made of the following XCMs, each obtained from their producer. The monomeric XCMs investigated were iopromide 300 (Bayer Vital, Leverkusen), iomeprol 300 (Altana, Konstanz, Germany), and iohexyl 350 (Omnipaque, GE Healthcare, Munich, Germany). For comparison, Isovist 300 (Bayer Vital, Leverkusen) and iodixanol 320 and iodixanol 270 (Visipaque, GE Healthcare, Munich, Germany), two dimeric XCMs, were also included in the study. The XCMs were injected in one dose of 4 g per kg of body weight (BW). As with all toxicological issues, it should be noted that the conversion to the human dose has to be based on body surface area. Thus, 4 g of iodine per kg of BW in the rat correspond to about 0.6 g of iodine per kg of BW in humans.
(§2) Wistar Han (CRL: WI) rats (male; 230-300 g) were obtained from Charles River (Sulzfeld, Germany). The animals were kept under normal laboratory conditions at a temperature of 22° C. and a night/day rhythm of 12 hours. The animals had access to standard feed and water ad libitum. The animals were kept and treated in accordance with the German animal welfare guidelines.
(§3) The respective XCMs were intravenously (i.v.) injected in one dose of 4 g of iodine per kg of BW (corresponds to 0.6 g of iodine per kg of BW in humans) into the tail vein. The XCMs were manually injected as a bolus, followed by a 0.2 ml bolus of saline solution. Each test group consisted of 6 test animals. The iodine concentrations in the kidneys were determined ex vivo by X-ray fluorescence analysis (XFA). 24 hours after the XCM injection, the animals were sacrificed and both kidneys were removed. The kidneys were lysed in 10% KOH, and the iodine concentration in the sample was subsequently determined by XFA. The iodine concentrations in the renal cortex were determined 24 hours after the injection using a 64-slice CT scanner (Sensation 64, Siemens Medical Solutions, Erlangen, Germany). Scanner settings (80 kV, 120 mAseff) were used for all investigations, and the reconstructions were carried out with an image field of 70×70 mm and a thickness of 1 mm The X-ray attenuation in Hounsfield units (HU) was determined in the cortex of the kidney in 3 independent regions of interest (ROI) (FIG. 2). All data were carried out by two independent blinded readers.
To determine the degree of vacuolization, a kidney was removed 24 after the injection of the XCMs and a medial piece of tissue was fixed in formaldehyde and embedded in paraffin. The microtome sections were stained with hematoxylin, and the degree of vacuolization was determined. The determination of the degree of vacuolization was carried out in a blinded experiment by Dr. Haider, Institut für Tierpathologie [Institute for Animal Pathology].

[1] = Renal cortex iodine content 24 hours after injection of XCM, X-ray attenuation by CT; conditions: rat, 4 g of iodine per kg of BW i.v., 80 kV, mean +/- SD, 6 animals
Protocol: as §1, §2
as §3, with “The XCMs were manually injected as a bolus, followed by a 0.2 ml bolus of saline solution. Each test group consisted of 6 test animals.” left out, “24 hours after the XCM injection, the animals were sacrificed and both kidneys were removed.” left out

[2] = Renal iodine content 24 hours after injection of XCM, X-ray fluorescence analysis (XFA) of lysed kidneys; conditions: rat, 4 g of iodine per kg of BW i.v., mean +/- SD, 6 animals
Protocol: as §1, §2
as §3, with “The XCMs were manually injected as a bolus, followed by a 0.2 ml bolus of saline solution. Each test group consisted of 6 test animals.” left out, “24 hours after the XCM injection, the animals were sacrificed and both kidneys were removed.” left out

[3] = of 6 animals, listed as Iopromide 300
[4] = of 6 animals, listed as iopromide

CC(=O)N(CC(O)CO)c1c(I)c(C(=O)NCC(O)CO)c(I)c(C(=O)NCC(O)CO)c1I (centres unmarked) [iohexyl 350]
degree of vacuolization in the kidney (in words) (tubular cells): increased vacuolization
Moderate degree of vacuolization (number of animals) (tubular cells; of 6 animals): 3
Slight degree of vacuolization (number of animals) (tubular cells; of 6 animals): 3

CN(C(=O)CO)c1c(I)c(C(=O)NCC(O)CO)c(I)c(C(=O)NCC(O)CO)c1I (centres unmarked) [iomeprol 300]
X-ray attenuation in the renal cortex (CT) [1]: 45.0+/−5.9 HU
degree of vacuolization in the kidney (in words) (tubular cells): increased vacuolization
Slight degree of vacuolization (number of animals) (tubular cells; of 6 animals): all the animals investigated
Slight degree of vacuolization (number of animals) (tubular cells; of 6 animals, listed as Iomeprol 300): 6
iodine concentration in the kidney (XFA) [2]: 0.738+/−0.098 mg of iodine per g of kidney tissue

COCC(=O)Nc1c(I)c(C(=O)NCC(O)CO)c(I)c(C(=O)N(C)CC(O)CO)c1I (centres unmarked) [iopromide 300, N,N′-bis(2,3-dihydroxypropyl)-2,4,6-triiodo-5-[(methoxyacetyl)amino]-N-methyl-1,3-benzenedicarboxamide]
X-ray attenuation in the renal cortex (CT) [1]: significantly lowest values
degree of vacuolization in the kidney (in words) (tubular cells): lowest degree of vacuolization
No vacuolization (number of animals) (tubular cells; [3]): 2
Slight degree of vacuolization (number of animals) (tubular cells; [3]): 4
No vacuolization (number of animals) (tubular cells; [4]): Two
Slight degree of vacuolization (number of animals) (tubular cells; [4]): four
iodine concentration in the kidney (XFA) [2]: significantly lowest iodine contents

CN(C(=O)CC(=O)N(C)c1c(I)c(C(=O)NC(CO)C(O)CO)c(I)c(C(=O)NC(CO)C(O)CO)c1I)c1c(I)c(C(=O)NC(CO)C(O)CO)c(I)c(C(=O)NC(CO)C(O)CO)c1I (centres unmarked) [iotrolan 300]
X-ray attenuation in the renal cortex (CT) [1]: 217.2+/−29.4 HU
iodine concentration in the kidney (XFA) [2]: 3.4+/−0.6 mg of iodine per g of kidney tissue
